According to the supplement of paper PMC8149375:

How the values were obtained:
Settings in all cases: treatment: drug alone; 5 days
786-O [1] = assay: AUC of dose-response viability curve, drug alone (arbitrary (AUC of normalised viability)); higher = less growth inhibition
Method: (§1)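 Primary HTS: 8 RCC cell lines treated with 8 doses (up to 10 uM) of each library drug alone for 5 days; viability read by CellTiter-Glo and normalised to DMSO. GI50 was fitted with XLfit (4-parameter), AUC is the area under the dose-response curve, and minimum viability is the lowest fraction of DMSO viability across doses.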

UO-31 [2] = assay: as above
Method: as §1

SN12C [3] = assay: as above
Method: as §1

CAKI-1 [4] = assay: as above
Method: as §1

A498 [5] = assay: as above
Method: as §1

TK-10 [6] = assay: as above
Method: as §1

ACHN [7] = assay: as above
Method: as §1

769-P [8] = assay: as above
Method: as §1

786-O [9] = assay: minimum viability across doses, drug alone, relative to DMSO (fraction); higher = less growth inhibition
Method: as §1

UO-31 [10] = assay: as above
Method: as §1

SN12C [11] = assay: as above
Method: as §1

CAKI-1 [12] = assay: as above
Method: as §1

A498 [13] = assay: as above
Method: as §1

TK-10 [14] = assay: as above
Method: as §1

ACHN [15] = assay: as above
Method: as §1

769-P [16] = assay: as above
Method: as §1

786-O [17] = assay: GI50, drug alone; higher = less potent
Method: as §1

UO-31 [18] = assay: GI50, drug alone; higher = less potent
Method: as §1

SN12C [19] = assay: GI50, drug alone; higher = less potent
Method: as §1

CAKI-1 [20] = assay: GI50, drug alone; higher = less potent
Method: as §1

A498 [21] = assay: GI50, drug alone; higher = less potent
Method: as §1

TK-10 [22] = assay: GI50, drug alone; higher = less potent
Method: as §1

ACHN [23] = assay: GI50, drug alone; higher = less potent
Method: as §1

769-P [24] = assay: GI50, drug alone; higher = less potent
Method: as §1

Row | SMILES | GI50, drug alone (786-O [17]) | GI50, drug alone (ACHN [23]) | AUC of dose-response viability curve (786-O [1]) | AUC of dose-response viability curve (UO-31 [2]) | AUC of dose-response viability curve (SN12C [3]) | AUC of dose-response viability curve (CAKI-1 [4]) | AUC of dose-response viability curve (A498 [5]) | AUC of dose-response viability curve (TK-10 [6]) | AUC of dose-response viability curve (ACHN [7]) | AUC of dose-response viability curve (769-P [8]) | minimum viability across doses (786-O [9]) | minimum viability across doses (UO-31 [10]) | minimum viability across doses (SN12C [11]) | minimum viability across doses (CAKI-1 [12]) | minimum viability across doses (A498 [13]) | minimum viability across doses (TK-10 [14]) | minimum viability across doses (ACHN [15]) | minimum viability across doses (769-P [16]) | GI50, drug alone (UO-31 [18]) | GI50, drug alone (SN12C [19]) | GI50, drug alone (CAKI-1 [20]) | GI50, drug alone (A498 [21]) | GI50, drug alone (TK-10 [22]) | GI50, drug alone (769-P [24])
1 | CC(C)(O)CC(=O)NCCn1ccc2ncnc(Nc3ccc(Oc4cccc(C(F)(F)F)c4)c(Cl)c3)c21 [TAK-285] | > 10 µM | 4.12 µM | 2.42 | 4.9 | 3.17 | 3.14 | 3.69 | 2.5 | 2.78 | 3.04 | 0.524 | 1.21 | 0.81 | 0.584 | 0.852 | 0.412 | 0.421 | 0.407 | > 10 µM | > 10 µM | > 10 µM | > 10 µM | 3.95 µM | 6.69 µM
2 | Cn1c(=O)c(F)c(Nc2ccc(I)cc2F)c2c(=O)n(C[C@@H](O)CO)cnc21 [TAK-733] | 0.167 µM | 0.209 µM | 2.08 | 3.49 | 2.08 | 1.57 | 3.42 | 1.72 | 1.8 | 2.33 | 0.396 | 0.0861 | 0.26 | 0.17 | 0.784 | 0.242 | 0.291 | 0.293 | 2.45 µM | 0.758 µM | 0.095 µM | > 10 µM | 0.149 µM | 0.933 µM
3 | Nc1nc(N)c2nc(-c3cccc(O)c3)c(-c3cccc(O)c3)nc2n1 [TG100-115] | > 10 µM | > 10 µM | 3.66 | 5.18 | 3.31 | 2.42 | 4.15 | 3.25 | 3.33 | 3.5 | 0.873 | 1.2 | 0.804 | 0.567 | 0.862 | 0.871 | 0.685 | 0.912 | > 10 µM | > 10 µM | > 10 µM | > 10 µM | > 10 µM | > 10 µM
4 | Cc1cc(C(C)Nc2ccccc2)c2nc(N3CCOCC3)cc(=O)n2c1 (stereo unspecified) [TGX-221] | > 10 µM | > 10 µM | 2.6 | 5.04 | 3.34 | 2.84 | 4.23 | 3.06 | 3.15 | 3.18 | 0.622 | 1.15 | 0.847 | 0.49 | 1.04 | 0.707 | 0.736 | 0.749 | > 10 µM | > 10 µM | 8.6 µM | > 10 µM | > 10 µM | > 10 µM
5 | NC(=O)Nc1sc(-c2ccc(F)cc2)cc1C(N)=O [TPCA-1] | 4.89 µM | 1.29 µM | 2.54 | 3.64 | 3.24 | 2.67 | 4.38 | 2.53 | 2.57 | 3.16 | 0.189 | 0.627 | 0.544 | 0.117 | 1.1 | 0.178 | 0.201 | 0.355 | > 10 µM | > 10 µM | 1.45 µM | > 10 µM | 1.78 µM | > 10 µM

Further lines, with some results ahead:

Row | GI50, drug alone (786-O [17]) | GI50, drug alone (ACHN [23]) | SMILES | AUC of dose-response viability curve (786-O [1]) | AUC of dose-response viability curve (UO-31 [2]) | AUC of dose-response viability curve (SN12C [3]) | AUC of dose-response viability curve (CAKI-1 [4]) | AUC of dose-response viability curve (A498 [5]) | AUC of dose-response viability curve (TK-10 [6]) | AUC of dose-response viability curve (ACHN [7]) | AUC of dose-response viability curve (769-P [8]) | minimum viability across doses (786-O [9]) | minimum viability across doses (UO-31 [10]) | minimum viability across doses (SN12C [11]) | minimum viability across doses (CAKI-1 [12]) | minimum viability across doses (A498 [13]) | minimum viability across doses (TK-10 [14]) | minimum viability across doses (ACHN [15]) | minimum viability across doses (769-P [16]) | GI50, drug alone (UO-31 [18]) | GI50, drug alone (SN12C [19]) | GI50, drug alone (CAKI-1 [20]) | GI50, drug alone (A498 [21]) | GI50, drug alone (TK-10 [22]) | GI50, drug alone (769-P [24])
6 | < 0.003 µM | 1.84 µM | COc1cc(N2CCC(N3CCN(C)CC3)CC2)ccc1Nc1ncc(Cl)c(Nc2ccccc2S(=O)(=O)C(C)C)n1 [TAE684 (NVP-TAE684)] | 1.87 | 4.34 | 2.74 | 2.9 | 3.29 | 2.82 | 2.65 | 3.21 | 0.124 | 0.927 | 0.182 | 0.255 | 0.399 | 0.356 | 0.237 | 0.722 | > 10 µM | 2.62 µM | 2.33 µM | 1.43 µM | 3.59 µM | > 10 µM
7 | 0.381 µM | 0.708 µM | CCS(=O)(=O)c1cccc(-c2cc(C(=O)NC3CCN(C)CC3)c(C)c3[nH]c4ncc(C)cc4c23)c1 [TAK-901] | 1.81 | 4.08 | 1.98 | 2.65 | 3.09 | 2.27 | 2.33 | 3.25 | 0.00628 | 0.21 | 0.00544 | 0.0277 | 0.0141 | 0.0432 | 0.0394 | 0.521 | 8.94 µM | 0.383 µM | 1.32 µM | 0.956 µM | 0.836 µM | > 10 µM
8 | > 10 µM | > 10 µM | Cc1[nH]c(/C=C2\C(=O)Nc3ccccc32)c(C)c1CCC(=O)O [TSU-68] | 3.1 | 2.36 | 3.41 | 3.34 | 3.71 | 3.26 | 3.12 | 3.3 | 0.786 | 0.879 | 0.882 | 0.903 | 0.884 | 0.855 | 0.752 | 0.887 | > 10 µM | > 10 µM | > 10 µM | > 10 µM | > 10 µM | > 10 µM
9 | 0.133 µM | 1.46 µM | CC(C)c1ccccc1Cc1cc(C(=O)Nc2ccc(S(=O)(=O)c3ccccc3C(C)(C)C)cc2)c(O)c(O)c1O [TW-37] | 1.54 | 4.07 | 2.97 | 2.77 | 4 | 2.25 | 2.48 | 3.12 | 0.0508 | 0.0881 | 0.499 | 0.0857 | 0.946 | 0.296 | 0.0989 | 0.0442 | 8.46 µM | > 10 µM | 0.926 µM | > 10 µM | 1.73 µM | 2.8 µM
